Data taken from PubChem BioAssay (NCI).
Where “and” joins values, the source holds several entries; their conditions need not be identical. Equal entries are not always repeated.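 1) Cells in 96-well plates. 2) Compound, 48 h, 5 concentrations. 3) Linear interpolation between surrounding doses. 4) Unreached endpoint = highest concentration. Abbreviation: GI50, concentration required for 50% inhibition of growth. At the TGI there is no net growth.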

Legend:
Test in all cases: NCI anticancer screen, dose series, 48 h
[1] = test system: K-562 leukemia
[2] = test system: SK-MEL-28 melanoma
[3] = test system: NCI/ADR-RES ovarian
[4] = test system: 786-0 renal
[5] = test system: UACC-62 melanoma
[6] = test system: OVCAR-8 ovarian
[7] = test system: SK-MEL-2 melanoma
[8] = test system: SNB-75 CNS
[9] = test system: MDA-MB-231 breast
[10] = test system: HL-60(TB) leukemia
[11] = test system: MDA-MB-435
[12] = test system: UO-31 renal
[13] = test system: MCF7 breast
[14] = test system: UACC-257 melanoma
[15] = test system: TK-10 renal
[16] = test system: SF-268 CNS
[17] = test system: NCI-H226 lung
[18] = test system: SF-539 CNS
[19] = test system: NCI-H23 lung
[20] = test system: HS 578T breast
[21] = test system: PC-3 prostate
[22] = test system: HCT-116 colon
[23] = test system: T-47D breast
[24] = test system: CAKI-1 renal
[25] = test system: A498 renal
[26] = test system: OVCAR-5 ovarian
[27] = test system: A549 NSCLC
[28] = test system: SNB-19 CNS
[29] = test system: ACHN renal

For `CC1CCCc2sc3nc(NNC(=O)c4cnccn4)n(-c4ccccc4)c(=O)c3c21` (configuration not stated), the GI50 [1] was 454 nM and 399 nM, the TGI [1] was over 100000 nM and the GI50 [2] was 485 nM and 378 nM. For the same molecule, the TGI [2] was 19800 nM and 32500 nM, the GI50 [3] was 380 nM and 232 nM and the GI50 [4] was 508 nM and 274 nM. The TGI [4] was 12400 nM and 5430 nM, the GI50 [5] was 296 nM and 258 nM and the TGI [5] was 2200 nM and 1110 nM. The GI50 [6] was 346 nM and 333 nM, the TGI [6] was over 93200 nM and the GI50 [7] was 1050 nM and 705 nM. The TGI [7] was 19400 nM and 19800 nM, the GI50 [8] was 1060 nM and 899 nM and the TGI [8] was 38700 nM and > 50000 nM. The GI50 [9] was 425 nM and 328 nM, the TGI [9] was 13400 nM and 13500 nM and the GI50 [10] was 367 nM and 279 nM. For the same molecule, the TGI [10] was 2750 nM and 908 nM, the GI50 [11] was 700 nM and 556 nM and the TGI [11] was 25100 nM and > 40800 nM. For the same molecule, the GI50 [12] was 214 nM and 151 nM, the TGI [12] was 6470 nM and 2960 nM and the GI50 [13] was 325 nM and 238 nM. The TGI [13] was > 79300 nM and 14400 nM, the GI50 [14] was 540 nM and 365 nM and the TGI [14] was 6980 nM and 3860 nM. The GI50 [15] was 686 nM and 329 nM, the TGI [15] was over 83000 nM and the GI50 [16] was 346 nM and 207 nM. For the same molecule, the TGI [16] was over 100000 nM, the GI50 [17] was 634 nM and 277 nM and the TGI [17] was 9600 nM and 5750 nM. The GI50 [18] was 658 nM and 328 nM, the TGI [18] was 10300 nM and 4320 nM and the GI50 [19] was 871 nM and 465 nM. The TGI [19] was > 100000 nM and 26500 nM, the GI50 [20] was 3460 nM and 2790 nM and the TGI [20] was > 74600 nM and 87300 nM. For the same molecule, the GI50 [21] was 499 nM and 385 nM, the TGI [21] was 22200 nM and 26600 nM and the GI50 [22] was 338 nM and 264 nM. The TGI [22] was 14000 nM and 13400 nM, the GI50 [23] was 520 nM and 397 nM and the TGI [23] was over 100000 nM. The GI50 [24] was 559 nM and 334 nM, the TGI [24] was > 54400 nM and 9230 nM and the GI50 [25] was 2620 nM and 688 nM. For the same molecule, the TGI [25] was 8540 nM and 4440 nM, the GI50 [26] was 656 nM and 371 nM and the TGI [26] was 30900 nM and 33600 nM. The GI50 [27] was 367 nM and 262 nM, the TGI [27] was 22400 nM and 16200 nM and the GI50 [28] was 389 nM and 340 nM. For the same molecule, the TGI [28] was over 100000 nM, the GI50 [29] was 331 nM and 217 nM and the TGI [29] was 18700 nM and 13100 nM.
